Data as given in US20250304537A1 (Repare Therapeutics Inc., priority 2022, published 2025).
Where two headings read alike, the source gives them in different places.

Columns and labels:
[1] = biological target: recombinant human Myt1 (full length PKMYT1) (Homo sapiens (Human), UniProt Q99640); assay: Recombinant human Myt1 kinase assay (ADP-Glo); assay type: biochemical; settings: 10 μM ATP
Summary of the method: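 ADP-Glo luminescence measured ATP hydrolysis by recombinant full-length PKMYT1 (18 nM) after 60 min at 30 °C with 10 μM ATP. Compounds in 0.5% DMSO were added to the enzyme 15 min before ATP, at 22 °C, in HEPES/MgCl2/MnCl2 buffer. IC50 and percent maximal inhibition were derived.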

[2] = tested on: PKMYT1 (CDK1 pThr14) in FUOV1 cells; assay: PKMYT1 cell-based activity assay, CDK1 pThr14 AlphaLISA in FUOV1 cells; settings: read-out: FUOV-1 CDK1 pThr14 IC50
Summary of the method: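 IC50 was derived from AlphaLISA signal (excitation 680 nm, emission 615 nm) for phospho-Thr14 CDK1 in lysates. The detection antibodies were rabbit anti-pThr14 and mouse anti-total CDK1, each at 5 nM. FUOV1 ovarian cells were exposed to compound for 2 hours before lysis.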

Sequence of recombinant human Myt1 (full length PKMYT1) (Q99640 whole entry): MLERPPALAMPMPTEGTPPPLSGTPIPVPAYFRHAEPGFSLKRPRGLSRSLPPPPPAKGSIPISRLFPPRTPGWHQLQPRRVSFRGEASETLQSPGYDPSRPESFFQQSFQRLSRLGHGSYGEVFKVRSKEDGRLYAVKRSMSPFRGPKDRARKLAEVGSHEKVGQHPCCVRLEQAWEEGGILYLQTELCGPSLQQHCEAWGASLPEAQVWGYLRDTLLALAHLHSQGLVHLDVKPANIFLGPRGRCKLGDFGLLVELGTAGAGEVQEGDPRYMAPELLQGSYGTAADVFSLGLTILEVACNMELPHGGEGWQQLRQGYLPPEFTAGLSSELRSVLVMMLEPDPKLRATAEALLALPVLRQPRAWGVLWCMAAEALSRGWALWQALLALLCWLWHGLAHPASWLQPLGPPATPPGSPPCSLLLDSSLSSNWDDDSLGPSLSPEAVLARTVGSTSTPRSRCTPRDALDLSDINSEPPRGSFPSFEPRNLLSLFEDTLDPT

Row | IC50 [1] | IC50 ([2]; 2 h, 2 h compound incubation) | IC50 ([2]; 2 h, 2 h incubation) | IC50 ([2]; 2 h incubation) | IC50 ([2]; 2 h, 2 hours with compound) | SMILES
1 | 3 nM | 41 nM |  |  |  | Cc1ccc2[nH]ncc2c1-c1nc(-c2ccc(F)cc2Nc2ccnc(C#N)c2)nc(C(N)=O)c1N [Compound 620]
2 | 79 nM |  | 7400 nM |  |  | Cc1ccc2[nH]ncc2c1-c1nc(-c2nccs2)nc(C(N)=O)c1N [Compound 108]
3 | 6 nM | 41 nM |  |  |  | Cc1ccc2[nH]ncc2c1-c1nc(-c2ccccc2NC(=O)C(C)(C)C(F)(F)F)nc(C(N)=O)c1N [Compound 402]
4 | 3 nM | 6 nM |  |  |  | Cc1ccc2[nH]ncc2c1-c1nc(-c2ccccc2NC(=O)C2(F)CC2)nc(C(N)=O)c1N [Compound 461]
5 | 466 nM |  | 2420 nM |  |  | Cc1ccc2[nH]ncc2c1-c1cc(-c2ccnc(N[C@H](CO)c3ccccc3)n2)nc(C(N)=O)c1N (atropisomer, axis not shown) [Compound 371]
6 | 4 nM |  | 150 nM |  |  | Cc1ccc2[nH]ncc2c1-c1cc(-c2ccnc(OC3(C)COC3)n2)nc(C(N)=O)c1N [Compound 220]
7 | 20 nM |  | 860 nM |  |  | Cc1ccc2[nH]ncc2c1-c1cc(-c2cnccn2)nc(C(N)=O)c1N [Compound 190]
8 | 3 nM | 26 nM |  |  |  | Cc1ccc2[nH]ncc2c1-c1nc(-c2cc(F)c(F)cc2NC(=O)C2(C#N)CC2)nc(C(N)=O)c1N [Compound 477]
9 | 2 nM |  |  | 31 nM |  | Cc1ccc(O)c(C)c1-c1cc(-c2cccc(OC3CCOCC3)n2)nc(C(N)=O)c1N [Compound 94]
10 | 5 nM | 42 nM |  |  |  | Cc1ccc2[nH]ncc2c1-c1nc(-c2cccnc2NCC(F)F)nc(C(N)=O)c1N [Compound 625]
11 | 40 nM |  | 252 nM |  |  | Cc1ccc2[nH]ncc2c1-c1cc(-c2csc(OC3COC3)n2)nc(C(N)=O)c1N [Compound 224]
12 | 15 nM |  |  |  | 589 nM | Cc1ccc2[nH]ncc2c1-c1nc(-c2cn(CC3CC3)nc2NC2CCOCC2)nc(C(N)=O)c1N [Compound 892]
13 | 2520 nM |  |  |  | > 10000 nM | CNS(=O)(=O)c1ccccc1-c1nc(C(N)=O)c(N)c(-c2c(C)ccc3[nH]ncc23)n1 [Compound 795]
14 | 8 nM | 8 nM |  |  |  | Cc1ccc2[nH]ncc2c1-c1nc(-c2cc(F)c(F)cc2NC(=O)C2(C)CC2)nc(C(N)=O)c1N [Compound 446]
15 | 9 nM |  | 596 nM |  |  | Cc1ccc2[nH]ncc2c1-c1cc(-c2ccnc(OCCc3ccn(C)n3)n2)nc(C(N)=O)c1N [Compound 312]
16 | 8 nM |  | 259 nM |  |  | Cc1ccc(O)c(C)c1-c1cc(-c2ccccn2)cc(C(N)=O)c1N [Compound 80]
17 | 7 nM |  | 243 nM |  |  | Cc1ccc2[nH]ncc2c1-c1cc(-c2cccc(OCc3cccnn3)n2)nc(C(N)=O)c1N [Compound 242]
18 | 13 nM |  | 346 nM |  |  | Cc1ccc2[nH]ncc2c1-c1cc(-c2ccnc(Sc3ccccc3)n2)nc(C(N)=O)c1N [Compound 177, 3-amino-4-(5-methyl-1H-indazol-4-yl)-6-(2-(phenylthio)pyrimidin-4-yl)picolinamide]
19 | 6 nM |  |  | 268 nM |  | Cc1ccc2[nH]ncc2c1-c1cc(-c2ccnc(OCC(F)(F)F)n2)nc(C(N)=O)c1N [Compound 159]
20 | 14 nM |  |  |  | > 10000 nM | Cc1ccc2[nH]ncc2c1-c1nc(-c2ccccc2-c2ncc[nH]2)nc(C(N)=O)c1N [Compound 808]
21 | 4 nM | 93 nM |  |  |  | Cc1ccc2[nH]ncc2c1-c1nc(-c2ccccc2NC(=O)C2(C(F)(F)F)CC2)nc(C(N)=O)c1N [Compound 405]
22 | 16 nM | 261 nM |  |  |  | Cc1ccc2[nH]ncc2c1-c1nc(-c2cc(F)c(F)cc2NC(=O)C2(C(F)(F)F)CC2)nc(C(N)=O)c1N [Compound 471]
23 | 6 nM |  | 181 nM |  |  | Cc1ccc2[nH]ncc2c1-c1cc(-c2ccnc(OCCOC3CC3)n2)nc(C(N)=O)c1N [Compound 205]
24 | 19 nM |  |  |  | 862 nM | Cc1ccc2[nH]ncc2c1-c1nc(-c2cc(F)cnc2NC2CCOC(C(F)(F)F)C2)nc(C(N)=O)c1N (centres unmarked) [Compound 873]
25 | 6 nM |  |  |  | 46 nM | Cc1ccc2[nH]ncc2c1-c1nc(-c2cn(C)nc2NC2CCCC2)nc(C(N)=O)c1N [Compound 900]
26 | 5 nM | 105 nM |  |  |  | COC1(C(=O)Nc2ccccc2-c2nc(C(N)=O)c(N)c(-c3c(C)ccc4[nH]ncc34)n2)CC1 [Compound 432]
27 | 4 nM | 7 nM |  |  |  | Cc1cncnc1Nc1cc(F)ccc1-c1nc(C(N)=O)c(N)c(-c2c(C)ccc3[nH]ncc23)n1 [Compound 617]
28 | 9 nM |  | 970 nM |  |  | Cc1ccc2[nH]ncc2c1-c1cc(-c2ccnc(N3CCOCC3)n2)nc(C(N)=O)c1N [Compound 198]

Row | IC50 [1] | IC50 ([2]; 2 h, 2 h compound incubation) | IC50 ([2]; 2 h, 2 h incubation) | IC50 ([2]; 2 h incubation) | IC50 ([2]; 2 h, 2 hours with compound) | SMILES
29 | 5 nM |  | 158 nM |  |  | Cc1ccc2[nH]ncc2c1-c1cc(-c2cccc(OCc3cscn3)n2)nc(C(N)=O)c1N [Compound 278]
30 | 10 nM |  | 476 nM |  |  | Cc1ccc2[nH]ncc2c1-c1cc(-c2ccnc(OC3CNC3)n2)nc(C(N)=O)c1N [Compound 194]
31 | 16 nM | 398 nM |  |  |  | Cc1ccc2[nH]ncc2c1-c1nc(-c2ccccc2NC(=O)OC(C)(C)C)nc(C(N)=O)c1N [Compound 474]
32 | 5 nM |  | 131 nM |  |  | Cc1ccc(O)c(C)c1-c1cc(-c2ccns2)cc(C(N)=O)c1N [Compound 92]
33 | 619 nM |  |  |  | > 10000 nM | Cc1ccc2[nH]ncc2c1-c1nc(-c2cccnc2Nc2nccn2C2CC2)nc(C(N)=O)c1N [Compound 902]
34 | 12 nM |  | 551 nM |  |  | Cc1ccc2[nH]ncc2c1-c1cc(-c2ccncn2)nc(C(N)=O)c1N [Compound 105]
35 | 6 nM |  | 56 nM |  |  | COCC(=O)Nc1ccccc1-c1nc(C(N)=O)c(N)c(-c2c(C)ccc3[nH]ncc23)n1 [Compound 332, 5-amino-2-(2-(2-methoxyacetamido)phenyl)-6-(5-methyl-1H-indazol-4-yl)pyrimidine-4-carboxamide]
36 | 4 nM |  | 387 nM |  |  | Cc1ccc2[nH]ncc2c1-c1cc(-c2ccnc(OCCc3cc[nH]n3)n2)nc(C(N)=O)c1N [Compound 265]
37 | 4 nM |  | 134 nM |  |  | Cc1ccc2[nH]ncc2c1-c1cc(-c2ccnc(OCc3ccccn3)n2)nc(C(N)=O)c1N [Compound 229]
38 | 4 nM |  | 208 nM |  |  | Cc1ccc(-c2cc(-c3c(C)ccc(O)c3C)c(N)c(C(N)=O)n2)nc1 [Compound 40]
39 | 165 nM |  |  | 284 nM |  | Cc1ccc2[nH]ncc2c1-c1cc(-c2cccc(OC[C@H](N)c3ccccc3)n2)nc(C(N)=O)c1N (atropisomer, axis not shown) [Compound 338]
40 | 4 nM | 23 nM |  |  |  | Cc1ccc2[nH]ncc2c1-c1nc(-c2ccccc2NS(C)(=O)=O)nc(C(N)=O)c1N [Compound 427, 5-amino-6-(5-methyl-1H-indazol-4-yl)-2-(2-(methylsulfonamido)phenyl)pyrimidine-4-carboxamide]
41 | 6 nM |  | 336 nM |  |  | Cc1ccc(O)c(C)c1-c1cc(-c2c[nH]cn2)nc(C(N)=O)c1N [Compound 43]
42 | 4 nM |  |  | 132 nM |  | Cc1ccc(O)c(C)c1-c1cc(-c2ccnc(N)c2)nc(C(N)=O)c1N [Compound 14]
43 | 42 nM |  | 390 nM |  |  | Cc1ccc2[nH]ncc2c1-c1cc(-c2cccnn2)nc(C(N)=O)c1N [Compound 191]
44 | 49 nM |  | > 10000 nM |  |  | NC(=O)c1nc(-c2ccccc2)nc(-c2ccc(F)c3[nH]ncc23)c1N [Compound 121]
45 | 12 nM |  | 192 nM |  |  | Cc1ccc2[nH]ncc2c1-c1cc(-c2ccnc(OC3CCOC3)n2)nc(C(N)=O)c1N (centres unmarked) [Compound 212]
46 | 11 nM |  | 517 nM |  |  | Cc1ccc(O)cc1-c1nc(-c2ccccc2)nc(C(N)=O)c1N [Compound 2, 5-amino-6-(5-hydroxy-2-methylphenyl)-2-phenylpyrimidine-4-carboxamide]
47 | 7 nM | 23 nM |  |  |  | Cc1ccc2[nH]ncc2c1-c1nc(-c2cc(F)c(F)cc2NC(=O)C2(C)CCN(C)C2)nc(C(N)=O)c1N (centres unmarked) [Compound 484]
48 | 5 nM |  | 22 nM |  |  | CO[C@H](COc1nccc(-c2cc(-c3c(C)ccc4[nH]ncc34)c(N)c(C(N)=O)n2)n1)c1ccccc1 (atropisomer, axis not shown) [Compound 309]
49 | 8 nM |  | 120 nM |  |  | Cc1ccc2[nH]ncc2c1-c1cc(-c2ccnc(OC3CCOCC3)n2)nc(C(N)=O)c1N [Compound 169]
50 | 28 nM |  | 3530 nM |  |  | Cc1ccc(O)cc1-c1nc(-c2ccc(Cl)cc2)nc(C(N)=O)c1N [Compound 18]
51 | 8 nM | 210 nM |  |  |  | Cc1ccc2[nH]ncc2c1-c1nc(-c2ccccc2NC(=O)C2CC(F)(F)C2)nc(C(N)=O)c1N [Compound 415]
52 | 5 nM |  | 56 nM |  |  | COC(COc1nccc(-c2cc(-c3c(C)ccc4[nH]ncc34)c(N)c(C(N)=O)n2)n1)C1CC1 (centres unmarked) [Compound 391]
53 | 5 nM | 4 nM |  |  |  | Cc1ccc2[nH]ncc2c1-c1nc(-c2ccccc2NC(=O)C2(C)CC2)nc(C(N)=O)c1N [Compound 401]
54 | 8 nM | 8 nM |  |  |  | Cc1ccc2[nH]ncc2c1-c1nc(-c2ccccc2N[C@H](C)C(F)(F)F)nc(C(N)=O)c1N [Compound 430]
55 | 7 nM |  | 373 nM |  |  | Cc1ccc(O)c(C)c1-c1cc(-c2nc3ccccc3o2)nc(C(N)=O)c1N [Compound 56]
